From PubChem BioAssay (NCI)
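All cell lines were grown in 96-well plates and treated with compound for 48 hours. TGI is the concentration that stops growth completely.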

Legend:
Experiment in all cases: NCI-60 cell line screen, 48 h
[1] = tested on: A549 NSCLC
[2] = tested on: MDA-MB-231 breast
[3] = tested on: NCI-H522 lung
[4] = tested on: OVCAR-4 ovarian
[5] = tested on: NCI-H226 lung

Row | Structure (SMILES) | TGI [1] [µM] | TGI [2] [µM] | TGI [3] [µM] | TGI [4] [µM] | TGI [5] [µM]
1 | O=C1N(c2ccccc2)C(=S)/C(=C/c2ccc(Cl)cc2)N1c1ccc(Cl)cc1 | > 100 | 90.5 | 38.4 | > 100 | 
2 | FC(F)(F)c1ccc2nc(Sc3ccc4ccccc4c3)cnc2c1 | > 100 | > 100 | > 100 | > 100 | > 100
3 | C=CC[C@H](N=C(SC)SC)C(=O)N1C(=O)N(C)[C@@H](C)[C@H]1c1ccccc1 | > 100 | > 100 | 54.1 | > 100 | > 100
4 | Cc1cc2ccc(N)nc2[nH]c1=O | > 100 | > 100 | > 100 |  | > 100
5 | Cc1ccccc1NC(=O)Cc1csc(N=Nc2c(O)[nH]c3ccccc23)n1 | > 100 | > 100 | 41.2 | 62.7 | > 100
6 | O=c1[nH]c2ccc([N+](=O)[O-])cc2nc1/C=C(\O)c1ccccc1 | > 100 | 15.3 | 34.6 | 8.87 | > 100
7 | CN1CCC2(CC1)C(=NC1CCCCC1)NC(=O)N2c1ccccc1 | > 100 | > 100 |  |  | > 100
8 | CCn1c2ccccc2c2cc(Nc3cc(C)[nH]c(=O)n3)ccc21 | > 100 | > 100 | > 100 | > 100 | 
9 | CC(C)c1ccc(/C=C2\CSCC3=C2N=C2SCC(=O)N2C3c2ccc(C(C)C)cc2)cc1 (stereo unspecified) | > 100 | > 100 |  | > 100 | > 100
10 | O=c1[nH]nc(-c2ccccc2)n1-n1cnnc1 | > 100 | > 100 | > 100 | > 100 | > 100
11 | CC(C)NC(=O)OCc1c(COC(=O)NC(C)C)c(-c2cc[n+](COC(=O)C3CCCCC3)cc2)n2c1CCC2 | > 100 | > 100 | > 100 | > 100 | > 100
12 | CC(C)(C)C1=C(Br)C(OC(=O)C(F)(F)F)(C(C)(C)C)OP1(=O)c1ccccc1 (stereo unspecified) | > 100 |  | > 100 | > 100 | > 100
13 | CCOC(=O)CCC(NC(=O)c1ccc(Nc2nc3ccccc3nc2C(=O)OCC)cc1)C(=O)OCC (stereo unspecified) | 14.3 | > 23.8 | 16.7 | 3.91 | 12.2
14 | CCOC(=O)/C=C/[C@@H](CC)O[Si](C(C)C)(C(C)C)C(C)C | > 100 | > 100 | > 100 | > 100 | > 100
15 | CN(C)CCCNC(=O)c1cn2c(ccc3sc4ccccc4c(=O)c32)n1 | 28.3 | 2.93 | 32.4 | 28.1 | 36.1
16 | COC1CC(OC2C(C)OC(OC3C(C)OC(OC4C(C)OC(O[C@H]5CC[C@@]6(C)C(=CC[C@]7(O)[C@@H]6C[C@@H](O)[C@@]6(C)[C@]7(O)CC[C@@]6(O)C(C)=O)C5)CC4OC)CC3OC)CC2OC)OC(C)C1O (stereo partly specified) | > 12.5 | > 12.5 | > 12.5 | > 12.5 | > 12.5
17 | Cc1csc(-n2c(C)nc3cc(Cl)ccc3c2=O)n1 | > 100 | > 100 | 60.6 | > 100 | > 100
18 | CC/C(=C\c1ccc(OC)cc1)c1ccc(OC)cc1 | > 100 | > 100 | > 100 | > 100 | > 100
19 | Cc1ccc(/C=C2/N=C(N/N=C\c3ccccc3)NC2=O)cc1 | > 100 | > 100 | > 100 | 55.1 | > 100
20 | N#Cc1nc(/C=C/c2cccnc2)oc1N | > 100 | > 100 | > 100 | > 100 | > 100
21 | CCOc1cc2c(cc1O)C(N)C[C@@H]1[C@@H]2CC[C@]2(C)[C@@H](O)CC[C@@H]12 (stereo partly specified) |  | > 100 | > 100 | > 100 | > 100
22 | O=C(Nc1ccc(Cl)cc1)c1cc(S(=O)(=O)Nc2n[nH]c(=O)n2-c2ccccc2)c(S)cc1Cl | > 100 | > 100 |  | > 100 | > 100

Row | Structure (SMILES) | TGI [1] [µM] | TGI [2] [µM] | TGI [3] [µM] | TGI [4] [µM] | TGI [5] [µM]
23 | CC(=O)c1sc2[n+](c1C)C(=O)/C(=C\c1ccccc1Cl)S2 | 43.6 | 52.9 | 39 | > 100 | 30.9
24 | CN(C)CCNC(=O)c1c(O)ccc2c1c1c(n2CCc2ccccc2)C(=O)c2ccccc2C1=O | 23.2 | 15 | 23 | 24.6 | 35.2
25 | O=C(N/N=C\c1ccc([N+](=O)[O-])s1)c1ccncc1 | > 66.3 | > 89.1 | 19.7 | 30.2 | 17.7
26 | C=C1C(=O)OC2C3OC(C)(CCC(O)C3COC(C)=O)CC(OC(=O)/C(=C/C)COC(C)=O)C12 (stereo unspecified) | 22.1 | 1.16 | 0.0749 | 12.3 | 8.4
27 | Cn1cc(NC(=O)Nc2cc(C(=O)Nc3cc(C(=O)Nc4cc(S(=O)(=O)O)c5cc(S(=O)(=O)O)cc(S(=O)(=O)O)c5c4)n(C)c3)n(C)c2)cc1C(=O)Nc1cc(C(=O)Nc2cc(S(=O)(=O)O)c3cc(S(=O)(=O)O)cc(S(=O)(=O)O)c3c2)n(C)c1 | > 100 | > 100 | > 100 | > 100 | > 100
28 | CC[C@@]1(O)C(=O)OCc2c1cc1n(c2=O)Cc2c-1nc1ccccc1c2/C=N\NC(=O)C(N)Cc1c[nH]c2ccccc12 (stereo partly specified) | 25.9 | > 100 | 32.3 | > 100 | 11.9
29 | Cc1cc(=O)oc2c(CNC(CC(C)C)C(=O)O)c(O)ccc12 (stereo unspecified) | > 100 | > 100 | > 100 | > 100 | > 100
30 | COC(=O)c1ccc(NCC2=C(Br)C(=O)C=CC2=O)cc1Cl | > 100 | 34.8 | 21.2 | 62.3 | > 100
31 | CC(=O)NC1C(OCc2ccccc2)OC(CO)C(O)C1OCC(=O)N[C@@H](C)C(=O)N[C@H](CCC(=O)NCCCNc1ccc([N+](=O)[O-])c2[nH]c3ccccc3c(=O)c12)C(N)=O (stereo partly specified) | > 100 | > 100 | > 100 | 94.8 | 65.8
32 | O=C1C(c2c(O)[nH]c3ccc(S(=O)(=O)NCCO)cc23)=Nc2ccccc21 | > 100 | 31.6 | 4.73 | 14.5 | > 100
33 | COC(=O)c1cc(/C=C\c2cc(OC)ccc2OC)ccc1OC | > 100 | > 100 | 45.6 | > 100 | 
34 | CN1CCN([C@H]2C[C@H]3[C@@H]4CC=C5C[C@@H](O)CC[C@]5(C)[C@H]4CC[C@]3(C)[C@H]2O)CC1 | > 100 | > 64.7 | > 100 | > 56.6 | > 100
35 | CC/C(N)=N\NC(=O)OC(C)(C)C | > 100 | > 100 | > 100 | > 100 | > 100
36 | C=C1CC2[C@H](C)C(=O)CCC2(C)C2=C1C1CCC(C(C)CCC(=C)C(C)C(=O)O)C1(C)CC2=O (stereo partly specified) | > 100 | > 100 | > 100 | > 100 | > 100
37 | CN(C)/C=C/C=C(/C=N/S(=O)(=O)C(F)(F)F)C1C=CN(S(=O)(=O)C(F)(F)F)C=C1 | > 100 | 81.7 | 52.4 | 42.9 | 67.3
38 | CCOC(=O)C(C/C=C/CO)N(C)C(=O)OC(C)(C)C (stereo unspecified) | > 100 | > 100 | 61.4 | > 100 | > 100
39 | O=C(Nc1ccc2ccccc2c1)c1cc2cc(CCl)ccc2oc1=O | > 100 | > 100 | > 100 | > 100 | > 100
40 | Cc1ccc(/C=C2\N=C(N3CCCC(CO)C3)NC2=O)cc1 (stereo unspecified) | > 100 | > 100 | > 100 | > 100 | > 100
41 | COc1ccc(CNc2nc3ccccc3nc2C(=O)O)cc1 | > 100 | > 100 | > 100 |  | > 100
42 | COc1cc(/C=N/NC2=NCCN2)ccc1O | > 100 | > 100 | > 100 | > 100 | > 100
43 | O=[N+]([O-])/C(C(Cl)=C(Cl)Cl)=C(/Nc1ccccc1)Sc1ccccc1 | 50.2 | 37.6 | 33.6 | 37.3 | 40.1
44 | O=C1C=C(N2CCN(CCOCCO)CC2)C(=O)c2c(O)ccc(O)c21 | 11.4 | 21.8 | 5.75 | 8.33 | 35.5

Row | Structure (SMILES) | TGI [1] [µM] | TGI [2] [µM] | TGI [3] [µM] | TGI [4] [µM] | TGI [5] [µM]
45 | CC(C)=NOC(=O)Nc1cccc2c1OCO2 | > 100 | > 100 | > 100 | > 100 | > 100
46 | C=CCNC(=S)/N=C/C(C(=O)Nc1ccccc1C)=C(\C)O | > 100 | > 100 | > 100 | > 100 | > 100
47 | O=c1cc(N2CCCC2)[nH]c(=O)n1-c1ccc(Cl)cc1 | > 100 | > 100 | > 100 | > 100 | > 100
48 | Cc1ccc2c(c1C)C(=O)/C(=C/c1cccc(C)c1C(=O)O)C2 | > 100 | > 100 | > 100 | > 100 | > 100
49 | CCNC(=S)N/N=C(\C)c1cccc(C)n1 | > 100 | > 100 | 26 |  | 47.9
50 | Cc1ccc(NC(=O)CC(=O)n2nc(C)c(N=Nc3cccc(C)c3)c2C)cc1 | > 100 | > 100 | > 100 | > 100 | > 100
51 | O=C1c2cc([N+](=O)[O-])sc2C(=O)c2c([N+](=O)[O-])csc21 | 3.56 | 2.19 | 1.68 | 2.06 | 3.8
52 | C[C@H](CCC(=O)NCC(=O)O)[C@H]1CC[C@H]2[C@@H]3[C@H](O)C[C@@H]4C[C@H](O)CC[C@]4(C)[C@H]3CC[C@]12C | > 100 | > 100 | > 100 | > 100 | > 100
53 | Cc1c(O)c(=O)ccn1CCc1ccc(O)cc1 | > 100 | 50.3 |  | 76.2 | 
54 | Nc1cc2c3c(cccc3c1)C(=O)N(c1ccc(OCCN3CCCC3)cc1)C2=O | 50.8 | 57.1 | 30.7 | 33.8 | 33.2
55 | COc1ccccc1NC(=S)N/N=C/c1cccc(C)n1 | 86.9 | > 100 | > 54.8 | > 100 | 37.3
56 | O=C(O)c1ccc(N/C(=C(/C(Cl)=C(Cl)Cl)[N+](=O)[O-])n2nnc3ccccc32)cc1 | > 100 | > 100 |  | > 100 | > 100
57 | CCCCC[C@H]1CCCCCCCCCC(=O)OC2C(O[C@@H]3OC(C)[C@H](OC(=O)[C@@H](C)CC)C(O[C@@H]4OC(C)[C@H](O)C(O)[C@@H]4O)[C@@H]3OC(=O)[C@H](C)CC)[C@H](OC3C(O)[C@@H](O)C(C)O[C@H]3O1)OC(CO)[C@H]2O (stereo partly specified) | 31.2 | 30.7 | 34.2 | 36.3 | 
58 | O=C(Cc1ccccc1)NN1C(=O)/C(=C\c2ccccc2O)SC1=Nc1ccccc1 | > 100 | > 100 |  | > 100 | > 100
59 | COc1cc2c3c(cc(Cl)nc3c1OC)C(O)(CC(=O)c1ccccc1)C(=O)N2 (stereo unspecified) | 33.1 | 31.2 | 8.93 | 5.49 | 41.3
60 | COc1ccc(-n2cnc3c(NC(Cc4ccccc4)C(=O)O)ncnc32)cc1 (stereo unspecified) | > 100 | > 100 |  | > 100 | > 100
61 | CC1C2(C)OCC(C#N)(C(=N)O2)C1(C#N)C#N (stereo unspecified) | > 100 | 42.8 |  |  | > 100
62 | COc1ccc2c(c1)CCC/C2=N\NS(=O)(=O)c1c(C)cc(C)cc1C | > 100 | > 100 |  | 92.7 | 59.8
63 | CCOC(=O)C(C(=O)COC(C)(C)C)[C@@H]1C=C[C@H](OC(C)=O)C1 (stereo partly specified) | > 100 | > 100 |  | > 100 | > 100
64 | CC(=O)OCC1OC(n2c(-c3ccccc3)c(N=Nc3ccc(C)cc3)c(C)c(C#N)c2=S)C(OC(C)=O)C(OC(C)=O)C1OC(C)=O (stereo unspecified) | 47 | > 100 |  | 25.1 | 
